According to ChEMBL document CHEMBL4177608, “Design and synthesis of benzimidazole-based Rho kinase inhibitors for the treatment of glaucoma” (Bioorg Med Chem, 2017):
Values after ≈ are worked out from the molar mass of the structure shown.

Columns and labels:
[1] = species on record: Rattus norvegicus; assay: Reduction in intraocular pressure in Wistar rat model of dexamethasone-induced elevated IOP assessed as change in intraocular pressure in contralateral eye at 1 % w/v after 2.5 hrs by tonometry (reference value: 0%); format: ADME, organism-based; set-up: scale not given: the % may be the effect or the level left; settings: in vivo
[2] = species on record: Rattus norvegicus; assay: Reduction in intraocular pressure in Wistar rat model of dexamethasone-induced elevated IOP assessed as reduction in intraocular pressure at peak effect time at 1 % w/v by tonometry; format: functional; set-up: scale not given: the % may be the effect or the level left
[3] = Antioxidant activity assessed as DPPH free radical scavenging activity at 25 ug/ml after 30 mins by spectrophotometric analysis; format: functional
[4] = species on record: Rattus norvegicus; assay: Reduction in intraocular pressure in Wistar rat model of dexamethasone-induced elevated IOP assessed as change in intraocular pressure at 1 % w/v after 2.5 hrs by tonometry (reference value: 0%); format: functional; set-up: scale not given: the % may be the effect or the level left
[5] = species on record: Rattus norvegicus; assay: Reduction in intraocular pressure in Wistar rat model of dexamethasone-induced elevated IOP assessed as peak effect time for reduction in intraocular pressure at 1 % w/v by tonometry; format: functional, organism-based
[6] = species on record: Rattus norvegicus; assay: Reduction in intraocular pressure in Wistar rat model of dexamethasone-induced elevated IOP assessed as change in intraocular pressure in contralateral eye at 1 % w/v after 1 hr by tonometry (reference value: 0%); format: ADME, organism-based; set-up: scale not given: the % may be the effect or the level left; settings: in vivo, topical_or_ocular
[7] = species on record: Rattus norvegicus; assay: Reduction in intraocular pressure in Wistar rat model of dexamethasone-induced elevated IOP assessed as change in intraocular pressure at 1 % w/v after 2 hrs by tonometry (reference value: 0%); format: functional; set-up: scale not given: the % may be the effect or the level left
[8] = Antioxidant activity assessed as DPPH free radical scavenging activity at 200 ug/ml after 30 mins by spectrophotometric analysis; format: functional
[9] = Antioxidant activity assessed as DPPH free radical scavenging activity at 150 ug/ml after 30 mins by spectrophotometric analysis; format: functional
[10] = species on record: Rattus norvegicus; assay: Reduction in intraocular pressure in Wistar rat model of dexamethasone-induced elevated IOP assessed as onset time for reduction in intraocular pressure at 1 % w/v by tonometry; format: functional
[11] = species on record: Rattus norvegicus; assay: Reduction in intraocular pressure in Wistar rat model of dexamethasone-induced elevated IOP assessed as change in intraocular pressure at 1 % w/v after 1 hr by tonometry (reference value: 0%); format: functional; set-up: scale not given: the % may be the effect or the level left
[12] = species on record: Rattus norvegicus; assay: Reduction in intraocular pressure in Wistar rat model of dexamethasone-induced elevated IOP assessed as change in intraocular pressure at 1 % w/v after 0.5 hrs by tonometry (reference value: 0%); format: functional; set-up: scale not given: the % may be the effect or the level left
[13] = species on record: Rattus norvegicus; assay: Reduction in intraocular pressure in Wistar rat model of dexamethasone-induced elevated IOP assessed as change in intraocular pressure at 1 % w/v after 5 hrs by tonometry (reference value: 0%); format: functional; set-up: scale not given: the % may be the effect or the level left
[14] = species on record: Rattus norvegicus; assay: Reduction in intraocular pressure in Wistar rat model of dexamethasone-induced elevated IOP assessed as change in intraocular pressure in contralateral eye at 1 % w/v after 3 hrs by tonometry (reference value: 0%); format: ADME, organism-based; set-up: scale not given: the % may be the effect or the level left; settings: in vivo
[15] = 1-Octanol/water partition coefficient, log P of compound at 2 mg after 24 hrs by spectrophotometry based shake flask method; format: physicochemical
[16] = Antioxidant activity assessed as DPPH free radical scavenging activity at 5 ug/ml after 30 mins by spectrophotometric analysis; format: functional
[17] = species on record: Rattus norvegicus; assay: Reduction in intraocular pressure in Wistar rat model of dexamethasone-induced elevated IOP assessed as change in intraocular pressure in contralateral eye at 1 % w/v after 2 hrs by tonometry (reference value: 0%); format: ADME, organism-based; set-up: scale not given: the % may be the effect or the level left; settings: in vivo
[18] = Antioxidant activity assessed as DPPH free radical scavenging activity after 30 mins by spectrophotometric analysis; format: functional
[19] = Antioxidant activity assessed as DPPH free radical scavenging activity at 100 ug/ml after 30 mins by spectrophotometric analysis; format: functional
[20] = species on record: Rattus norvegicus; assay: Reduction in intraocular pressure in Wistar rat model of dexamethasone-induced elevated IOP assessed as change in intraocular pressure in contralateral eye at 1 % w/v after 4 hrs by tonometry (reference value: 0%); format: ADME, organism-based; set-up: scale not given: the % may be the effect or the level left; settings: in vivo
[21] = species on record: Rattus norvegicus; assay: Reduction in intraocular pressure in Wistar rat model of dexamethasone-induced elevated IOP assessed as change in intraocular pressure in contralateral eye at 1 % w/v after 1.5 hrs by tonometry (reference value: 0%); format: ADME, organism-based; set-up: scale not given: the % may be the effect or the level left; settings: in vivo
[22] = species on record: Rattus norvegicus; assay: Reduction in intraocular pressure in Wistar rat model of dexamethasone-induced elevated IOP assessed as change in intraocular pressure in contralateral eye at 1 % w/v after 0.5 hrs by tonometry (reference value: 0%); format: ADME, organism-based; set-up: scale not given: the % may be the effect or the level left; settings: in vivo, topical_or_ocular
[23] = species on record: Rattus norvegicus; assay: Reduction in intraocular pressure in Wistar rat model of dexamethasone-induced elevated IOP assessed as change in intraocular pressure in contralateral eye at 1 % w/v after 5 hrs by tonometry (reference value: 0%); format: ADME, organism-based; set-up: scale not given: the % may be the effect or the level left; settings: in vivo
[24] = species on record: Rattus norvegicus; assay: Reduction in intraocular pressure in Wistar rat model of dexamethasone-induced elevated IOP assessed as change in intraocular pressure at 1 % w/v after 4 hrs by tonometry (reference value: 0%); format: functional; set-up: scale not given: the % may be the effect or the level left
[25] = Antioxidant activity assessed as DPPH free radical scavenging activity at 50 ug/ml after 30 mins by spectrophotometric analysis; format: functional
[26] = species on record: Rattus norvegicus; assay: Reduction in intraocular pressure in Wistar rat model of dexamethasone-induced elevated IOP assessed as change in intraocular pressure in contralateral eye at 1 % w/v after 6 hrs by tonometry (reference value: 0%); format: ADME, organism-based; set-up: scale not given: the % may be the effect or the level left; settings: in vivo
[27] = species on record: Rattus norvegicus; assay: Reduction in intraocular pressure in Wistar rat model of dexamethasone-induced elevated IOP assessed as change in intraocular pressure at 1 % w/v after 1.5 hrs by tonometry (reference value: 0%); format: functional; set-up: scale not given: the % may be the effect or the level left
[28] = species on record: Rattus norvegicus; assay: Reduction in intraocular pressure in Wistar rat model of dexamethasone-induced elevated IOP assessed as change in intraocular pressure at 1 % w/v after 3 hrs by tonometry (reference value: 0%); format: functional; set-up: scale not given: the % may be the effect or the level left
[29] = species on record: Rattus norvegicus; assay: Reduction in intraocular pressure in Wistar rat model of dexamethasone-induced elevated IOP assessed as change in intraocular pressure at 1 % w/v after 6 hrs by tonometry (reference value: 0%); format: functional; set-up: scale not given: the % may be the effect or the level left

| Compound | Activity [1] [%] | Activity [6] [%] | Activity [14] [%] | logP at 24 h [15] | Activity [17] [%] | IC50 [18] [mg/L] | Activity [20] [%] | Activity [2] [%] | Activity [3] [%] | Activity [4] [%] | Tmax [5] [h] | Activity [7] [%] | Activity [8] [%] | Activity [9] [%] | Time [10] [h] | Activity [11] [%] | Activity [12] [%] | Activity [13] [%] | Activity [16] [%] | Activity [19] [%] | other results |
| --- | --- | --- | --- | --- | --- | --- | --- | --- | --- | --- | --- | --- | --- | --- | --- | --- | --- | --- | --- | --- | --- |
| O=C(CN1CCN(C(c2ccccc2)c2ccccc2)CC1)Nc1nc2ccccc2[nH]1 | 4 | 1.13 | 3 | 1.89 | 5.08 | 88.68 (≈ 208 µM) | 1.53 | 51.91 | 32.9 | 12.4 | 2.5 | 16.47 | 81.4 | 66.6 | 0.5 | 5.83 | 4.37 | 3.67 | 22.1 | 53.7 | Activity [21]: 3.43%; Activity [22]: 0.77%; Activity [23]: 0%; Activity [24]: 7.33%; Activity [25]: 41.5%; Activity [26]: 0%; Activity [27]: 10.38%; Activity [28]: 8.17%; Activity [29]: 1.7% |
| COc1ccc(N2CCN(CC(=O)Nc3nc4ccccc4[nH]3)CC2)cc1 | 3.97 | 2.07 | 2 | 2.65 | 3.57 | 144.19 (≈ 395 µM) | 0.43 | 46.92 | 13.3 | 15.32 | 2.5 | 9.42 | 63.7 | 53.2 | 0.5 | 5.67 | 3.8 | 3.37 | 7.24 | 38.9 | Activity [21]: 2.83%; Activity [22]: 1.2%; Activity [23]: 0%; Activity [24]: 7%; Activity [25]: 25.8%; Activity [26]: 0%; Activity [27]: 6.15%; Activity [28]: 10.08%; Activity [29]: 1.33% |
| CN1CCN(CC(=O)Nc2nc3ccccc3[nH]2)CC1 | 6.57 | 2.08 | 2.15 | 1.67 | 5.75 | 137.54 (≈ 503 µM) | 0.55 | 44.68 | 19.9 | 13.57 | 2.5 | 12.97 | 61.6 | 54.3 | 0.5 | 9.77 | 5.47 | 1.35 | 11 | 45 | Activity [21]: 4%; Activity [22]: 1.08%; Activity [23]: 0%; Activity [24]: 4.45%; Activity [25]: 33.5%; Activity [26]: 0%; Activity [27]: 11.95%; Activity [28]: 10.3%; Activity [29]: 0.3% |

Now from value to compound, other results behind:

| Activity [1] [%] | Activity [6] [%] | Activity [14] [%] | logP at 24 h [15] | Activity [17] [%] | IC50 [18] [mg/L] | Activity [20] [%] | Compound | Activity [2] [%] | Activity [3] [%] | Activity [4] [%] | Tmax [5] [h] | Activity [7] [%] | Activity [8] [%] | Activity [9] [%] | Time [10] [h] | Activity [11] [%] | Activity [12] [%] | Activity [13] [%] | Activity [16] [%] | Activity [19] [%] | other results |
| --- | --- | --- | --- | --- | --- | --- | --- | --- | --- | --- | --- | --- | --- | --- | --- | --- | --- | --- | --- | --- | --- |
| 4.15 | 1.6 | 2.3 | 2.02 | 3.1 | 116.48 (≈ 330 µM) | 0.8 | O=C(CN1CCN(C(=O)c2ccco2)CC1)Nc1nc2ccccc2[nH]1 | 48.33 | 23.4 | 14.92 | 2 | 11.1 | 71 | 59 | 0.5 | 4.6 | 3.9 | 4.47 | 14.5 | 49 | Activity [21]: 2.03%; Activity [22]: 0.4%; Activity [23]: 0%; Activity [24]: 6.6%; Activity [25]: 35.9%; Activity [26]: 0%; Activity [27]: 8.8%; Activity [28]: 8.63%; Activity [29]: 1.27% |
| 2.72 | 2.47 | 2.32 | 1.97 | 3.2 | 134.71 (≈ 386 µM) | 1.26 | O=C(CN1CCN(Cc2ccccc2)CC1)Nc1nc2ccccc2[nH]1 | 35.52 | 22.1 | 11.45 | 2.5 | 8.65 | 63.9 | 52.6 | 0.5 | 5.58 | 3.4 | 2.9 | 6.28 | 47 | Activity [21]: 3.13%; Activity [22]: 1.67%; Activity [23]: 0.83%; Activity [24]: 5.66%; Activity [25]: 33.3%; Activity [26]: 0.47%; Activity [27]: 6.85%; Activity [28]: 10.5%; Activity [29]: 0.9% |
| 1.07 | 1.15 | 0.65 | 1.05 | 4 | 69.97 (≈ 208 µM) | 0 | O=C(CN1CCN(c2ccccn2)CC1)Nc1nc2ccccc2[nH]1 | 51.38 | 40.9 | 10.62 | 2 | 15.87 | 76.2 | 69.1 | 0.5 | 7 | 4 | 2.87 | 30.8 | 57.3 | Activity [21]: 2%; Activity [22]: 0.85%; Activity [23]: 0%; Activity [24]: 5.05%; Activity [25]: 50%; Activity [26]: 0%; Activity [27]: 10%; Activity [28]: 7.82%; Activity [29]: 0.65% |
| 2.43 | 2.07 | 1.67 | 1.89 | 3.63 | 148.39 (≈ 408 µM) | 0.83 | O=C(CN1CCN(CCc2ccccc2)CC1)Nc1nc2ccccc2[nH]1 | 37.15 | 13.5 | 11.95 | 2 | 10.17 | 62.9 | 51.8 | 0.5 | 5.52 | 2.53 | 0.83 | 8.11 | 38.1 | Activity [21]: 2.9%; Activity [22]: 1.23%; Activity [23]: 0.43%; Activity [24]: 3.76%; Activity [25]: 22.3%; Activity [26]: 0%; Activity [27]: 8.97%; Activity [28]: 7.1%; Activity [29]: 0.4% |
